Calls of active or inactive are those of the source. The rule behind the calls is not given here.
What was measured:
[1] = biological target: Mitogen-activated protein kinase kinase kinase 19 (Homo sapiens, UniProt Q56UN5); assay: Binding affinity to partial length wild-type human YSK4 (T1019 to H1328 residues) expressed in bacterial expression system by kinome scan assay
[2] = test system: Mus musculus; assay: Toxicity in C.B17/Icr scid/scid Jcl mouse assessed as body weight loss at 1.25 mg/kg, po bid administered for 14 days measured post last dose; assay type: organism-based; details: in vivo, 336 h
[3] = biological target: Casein kinase I isoform delta (Homo sapiens) (UniProt P48730); assay: Inhibition of CK1delta (unknown origin) at 1 uM using CK1tide as substrate preincubated for 5 mins followed by substrate addition measured after 20 mins in presence of [gamma33P]ATP by scintillation counter method relative to control
[4] = biological target: Cyclin-dependent kinase 8 (Homo sapiens, UniProt P49336); assay: Binding affinity to partial length wild-type human CDK8 (M1 to T360residues) expressed in bacterial expression system by kinome scan assay
[5] = test system: Mus musculus; assay: In vivo inhibition of CDK8-mediated STAT1 phosphorylation in human RPMI8226 cells xenografted in C.B17/Icr scid/scid Jcl mouse at 1.25 mg/kg, po bid administered for 14 days measured 2 to 8 hrs post last dose; assay type: functional, organism-based
[6] = biological target: High affinity nerve growth factor receptor (Homo sapiens) (UniProt P04629); assay: Inhibition of TrkA (unknown origin) at <1 uM
[7] = biological target: Tyrosine-protein kinase JAK1 (Homo sapiens) (UniProt P23458); assay: Inhibition of JAK1 (unknown origin) at <1 uM using biotinylated poly[Glu:Tyr] (4:1) as substrate pretreated for 5 mins followed by substrate addition measured after 10 mins by Alphascreen assay
[8] = biological target: CDK8/Cyclin C (Homo sapiens, UniProt P49336); assay: Inhibition of kinase tracer-236 binding to GST-tagged CDK8/CyclinC (unknown origin) after 60 mins by TR-FRET assay; assay type: protein-complex assay
[9] = biological target: CDK8/Cyclin C (Homo sapiens) (UniProt P49336+P24863); details: 1 uM
Description: Inhibition of kinase tracer-236 binding to GST-tagged CDK8/CyclinC (unknown origin) at 1 uM after 60 mins by TR-FRET assay relative to control

[10] = biological target: Mitogen-activated protein kinase 3 (Homo sapiens) (UniProt P27361); assay: Inhibition of ERK1 (unknown origin) at <1 uM using MBP as substrate preincubated for 5 mins followed by substrate addition measured after 60 mins in presence of [gamma33P]ATP by scintillation counter method
[11] = biological target: T1, Cyclin-dependent kinase 9 (Homo sapiens, UniProt P50750); assay: Inhibition of CDK9 (unknown origin) at 1 uM relative to control
[12] = biological target: T1, Cyclin-dependent kinase 9; assay: Inhibition of CDK9 (unknown origin)
[13] = test system: RPMI-8226; assay: Growth inhibition of human RPMI8226 cells after 196 hrs by CellTiter-Glo luminescence assay; assay type: functional; details: RPMI-8226, 196 h
[14] = biological target: Ephrin type-A receptor 5 (Homo sapiens) (UniProt P54756); assay: Inhibition of EphA5 (unknown origin) at <1 uM using biotinylated poly[Glu:Tyr] (4:1) as substrate pretreated for 5 mins followed by substrate addition measured after 10 mins by Alphascreen assay
[15] = biological target: CDC7/DBF4 (Cell division cycle 7-related protein kinase/Activator of S phase kinase) (Homo sapiens) (UniProt Q9UBU7+O00311); assay: Inhibition of CDC7/Dbf4 (unknown origin) at 1 uM using His-tagged MCM2 as substrate preincubated for 5 mins followed by substrate addition measured after 60 mins in presence of [gamma33P]ATP by scintillation counter method relative to control; assay type: protein-complex assay
[16] = biological target: Homeodomain-interacting protein kinase 2 (Homo sapiens) (UniProt Q9H2X6); assay: Binding affinity to partial length wild-type human HIPK2 (M153 to S564 residues) expressed in mammalian expression system assessed as unbound drug level at 300 nM by KINOMEscan assay
[17] = Intrinsic clearance in human liver microsomes at 1 umol/l after 15 to 30 mins in presence of NADPH by LC-MS/MS analysis; assay type: ADME, microsome; details: read-out: CLH
[18] = Oral bioavailability in ICR mouse plasma at 1 mg/kg administered as cassette dose by LC-MS/MS analysis; assay type: ADME, organism-based
[19] = biological target: Protein kinase C theta type (Homo sapiens) (UniProt Q04759); assay: Inhibition of PKCtheta (unknown origin) at 1 uM using MBP as substrate preincubated for 5 mins followed by substrate addition measured after 60 mins in presence of [gamma33P]ATP by scintillation counter method relative to control
[20] = biological target: Dual specificity tyrosine-phosphorylation-regulated kinase 1A (Homo sapiens) (UniProt Q13627); assay: Binding affinity to partial length wild-type human DYRK1A (H129 to S509 residues) expressed in mammalian expression system assessed as unbound drug level at 300 nM by KINOMEscan assay
[21] = biological target: Ephrin type-A receptor 3 (Homo sapiens) (UniProt P29320); assay: Binding affinity to partial length wild-type human EPHA3 (D604 to K889 residues) expressed in bacterial expression system assessed as unbound drug level at 300 nM by KINOMEscan assay
[22] = biological target: RAC-alpha serine/threonine-protein kinase (Homo sapiens) (UniProt P31749); assay: Inhibition of Akt1 (unknown origin) at <1 uM using AKT1 substrate pretreated for 5 mins followed by substrate addition after 20 mins in presence of [gamma33P]ATP by scintillation counter method
[23] = biological target: Rho-associated protein kinase 1 (Homo sapiens) (UniProt Q13464); assay: Inhibition of ROCK1 (unknown origin) at 1 uM using long S6 peptide as substrate pretreated for 5 mins followed by substrate addition measured after 10 mins in presence of [gamma33P]ATP by scintillation counting method relative to control
[24] = biological target: Cyclin-dependent kinase 19 (Homo sapiens, UniProt Q9BWU1); assay: Binding affinity to partial length wild-type human CDK19 (M1 to N360 residues) expressed in bacterial expression system by KINOMEscan assay
[25] = Mean residence time in ICR mouse plasma at 0.1 mg/kg, iv administered as cassette dose by LC-MS/MS analysis; assay type: ADME, organism-based
[26] = biological target: Mitogen-activated protein kinase kinase kinase 5 (Homo sapiens) (UniProt Q99683); assay: Inhibition of ASK1 (unknown origin) at 1 uM using MBP as substrate preincubated for 5 mins followed by substrate addition measured after 60 mins in presence of [gamma33P]ATP by scintillation counter method relative to control
[27] = biological target: Dual specificity mitogen-activated protein kinase kinase 1 (Homo sapiens) (UniProt Q02750); assay: Inhibition of MEK1 (unknown origin) at <1 uM using GST-ERK1 as substrate preincubated for 5 mins followed by substrate addition measured after 20 mins in presence of [gamma33P]ATP by scintillation counter method
[28] = biological target: Ephrin type-A receptor 3 (Homo sapiens, UniProt P29320); assay: Binding affinity to partial length wild-type human EPHA3 (D604 to K889 residues) expressed in bacterial expression system by kinome scan assay
[29] = Toxicity in C.B17/Icr scid/scid Jcl mouse mouse; details: in vivo
[30] = biological target: Cyclin-C/Cyclin-dependent kinase 19 (Homo sapiens, UniProt Q9BWU1); assay: Inhibition of kinase tracer-236 binding to GST-tagged CDK19/CyclinC (unknown origin) after 60 mins by TR-FRET assay; assay type: protein-complex assay

T1 sequence (P50750 whole entry): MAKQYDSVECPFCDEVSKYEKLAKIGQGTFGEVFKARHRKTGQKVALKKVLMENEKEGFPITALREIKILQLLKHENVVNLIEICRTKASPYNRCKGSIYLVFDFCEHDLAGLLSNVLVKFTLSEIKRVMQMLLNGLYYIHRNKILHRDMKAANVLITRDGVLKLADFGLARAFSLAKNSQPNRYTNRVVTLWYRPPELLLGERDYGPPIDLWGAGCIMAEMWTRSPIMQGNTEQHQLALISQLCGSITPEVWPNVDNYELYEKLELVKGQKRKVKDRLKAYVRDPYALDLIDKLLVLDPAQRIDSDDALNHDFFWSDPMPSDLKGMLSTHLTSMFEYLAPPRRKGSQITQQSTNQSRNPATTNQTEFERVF
Mitogen-activated protein kinase 3 (Homo sapiens), sequence (P27361 whole entry): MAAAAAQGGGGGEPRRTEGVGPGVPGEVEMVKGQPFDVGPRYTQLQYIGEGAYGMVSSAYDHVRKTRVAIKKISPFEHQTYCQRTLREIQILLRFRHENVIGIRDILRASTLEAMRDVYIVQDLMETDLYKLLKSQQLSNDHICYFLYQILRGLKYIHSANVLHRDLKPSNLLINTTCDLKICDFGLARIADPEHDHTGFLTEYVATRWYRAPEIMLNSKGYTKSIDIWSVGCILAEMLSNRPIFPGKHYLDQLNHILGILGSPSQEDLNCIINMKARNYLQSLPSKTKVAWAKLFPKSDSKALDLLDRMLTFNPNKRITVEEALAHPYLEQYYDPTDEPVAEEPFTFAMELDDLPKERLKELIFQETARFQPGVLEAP
Rho-associated protein kinase 1 (Homo sapiens), sequence (Q13464 2-1354 limits assumed): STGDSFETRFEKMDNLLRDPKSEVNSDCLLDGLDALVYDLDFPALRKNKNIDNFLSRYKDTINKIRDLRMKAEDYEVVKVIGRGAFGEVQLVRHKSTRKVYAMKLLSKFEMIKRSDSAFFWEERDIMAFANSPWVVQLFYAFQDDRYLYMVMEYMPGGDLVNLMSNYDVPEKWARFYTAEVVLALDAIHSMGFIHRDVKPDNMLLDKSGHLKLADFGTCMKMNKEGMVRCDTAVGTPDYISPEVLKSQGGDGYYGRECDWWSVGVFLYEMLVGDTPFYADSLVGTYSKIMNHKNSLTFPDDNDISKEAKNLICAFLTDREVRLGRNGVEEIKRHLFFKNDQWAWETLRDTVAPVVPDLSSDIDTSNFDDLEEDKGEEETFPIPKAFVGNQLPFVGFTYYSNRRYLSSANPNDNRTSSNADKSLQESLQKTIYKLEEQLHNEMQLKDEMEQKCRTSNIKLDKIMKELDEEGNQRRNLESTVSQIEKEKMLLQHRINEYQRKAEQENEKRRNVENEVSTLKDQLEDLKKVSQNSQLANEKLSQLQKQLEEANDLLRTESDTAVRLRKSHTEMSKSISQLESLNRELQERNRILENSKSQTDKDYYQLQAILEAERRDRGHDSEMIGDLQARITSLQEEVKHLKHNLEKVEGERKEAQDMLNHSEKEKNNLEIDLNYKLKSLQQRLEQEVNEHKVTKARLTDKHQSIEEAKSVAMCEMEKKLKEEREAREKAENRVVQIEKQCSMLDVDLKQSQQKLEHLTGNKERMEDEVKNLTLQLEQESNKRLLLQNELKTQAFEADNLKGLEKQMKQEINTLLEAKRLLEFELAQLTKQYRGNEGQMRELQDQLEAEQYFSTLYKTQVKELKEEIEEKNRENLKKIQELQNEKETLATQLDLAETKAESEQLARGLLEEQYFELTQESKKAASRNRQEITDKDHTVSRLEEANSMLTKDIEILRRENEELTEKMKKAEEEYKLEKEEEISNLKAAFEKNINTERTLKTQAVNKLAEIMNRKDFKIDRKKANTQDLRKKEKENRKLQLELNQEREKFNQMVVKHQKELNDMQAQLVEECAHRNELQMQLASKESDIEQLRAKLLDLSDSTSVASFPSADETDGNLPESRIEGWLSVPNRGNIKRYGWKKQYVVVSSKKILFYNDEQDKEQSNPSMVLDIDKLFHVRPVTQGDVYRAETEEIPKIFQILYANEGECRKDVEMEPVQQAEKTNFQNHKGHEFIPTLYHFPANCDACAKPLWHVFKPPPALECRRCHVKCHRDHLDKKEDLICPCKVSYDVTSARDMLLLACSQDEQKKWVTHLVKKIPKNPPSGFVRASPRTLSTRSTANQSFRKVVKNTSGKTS
Tyrosine-protein kinase JAK1 (Homo sapiens), sequence (P23458 whole entry): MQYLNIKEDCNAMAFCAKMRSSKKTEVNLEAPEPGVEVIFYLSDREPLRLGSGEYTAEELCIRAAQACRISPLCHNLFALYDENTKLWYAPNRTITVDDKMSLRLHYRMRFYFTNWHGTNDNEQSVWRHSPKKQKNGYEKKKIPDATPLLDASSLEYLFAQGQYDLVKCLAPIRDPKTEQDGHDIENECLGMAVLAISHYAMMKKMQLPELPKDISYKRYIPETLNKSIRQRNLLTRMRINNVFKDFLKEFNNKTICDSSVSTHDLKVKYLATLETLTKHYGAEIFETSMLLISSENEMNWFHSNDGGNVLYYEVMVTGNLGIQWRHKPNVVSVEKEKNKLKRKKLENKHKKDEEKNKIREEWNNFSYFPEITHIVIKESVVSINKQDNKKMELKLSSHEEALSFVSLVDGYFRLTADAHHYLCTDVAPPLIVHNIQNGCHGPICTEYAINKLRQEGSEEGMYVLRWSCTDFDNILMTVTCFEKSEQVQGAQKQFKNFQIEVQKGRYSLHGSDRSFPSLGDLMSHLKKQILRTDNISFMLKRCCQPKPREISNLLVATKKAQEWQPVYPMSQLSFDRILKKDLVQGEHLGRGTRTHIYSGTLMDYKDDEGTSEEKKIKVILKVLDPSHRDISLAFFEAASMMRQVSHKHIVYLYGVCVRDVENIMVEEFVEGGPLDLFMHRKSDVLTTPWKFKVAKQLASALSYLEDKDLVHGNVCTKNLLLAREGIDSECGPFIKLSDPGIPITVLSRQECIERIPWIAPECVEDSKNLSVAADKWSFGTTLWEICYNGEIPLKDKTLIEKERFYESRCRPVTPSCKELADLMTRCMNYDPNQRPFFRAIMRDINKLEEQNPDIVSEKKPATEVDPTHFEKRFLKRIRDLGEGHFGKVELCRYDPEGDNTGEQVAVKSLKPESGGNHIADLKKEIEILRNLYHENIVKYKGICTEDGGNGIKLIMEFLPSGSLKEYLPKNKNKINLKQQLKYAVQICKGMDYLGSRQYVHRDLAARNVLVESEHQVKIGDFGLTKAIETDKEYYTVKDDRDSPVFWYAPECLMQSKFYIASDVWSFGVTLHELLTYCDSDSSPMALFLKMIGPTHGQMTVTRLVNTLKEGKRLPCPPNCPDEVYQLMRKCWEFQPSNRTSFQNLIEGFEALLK
Ephrin type-A receptor 3 (Homo sapiens), sequence (P29320 whole entry, the tested form may be a part): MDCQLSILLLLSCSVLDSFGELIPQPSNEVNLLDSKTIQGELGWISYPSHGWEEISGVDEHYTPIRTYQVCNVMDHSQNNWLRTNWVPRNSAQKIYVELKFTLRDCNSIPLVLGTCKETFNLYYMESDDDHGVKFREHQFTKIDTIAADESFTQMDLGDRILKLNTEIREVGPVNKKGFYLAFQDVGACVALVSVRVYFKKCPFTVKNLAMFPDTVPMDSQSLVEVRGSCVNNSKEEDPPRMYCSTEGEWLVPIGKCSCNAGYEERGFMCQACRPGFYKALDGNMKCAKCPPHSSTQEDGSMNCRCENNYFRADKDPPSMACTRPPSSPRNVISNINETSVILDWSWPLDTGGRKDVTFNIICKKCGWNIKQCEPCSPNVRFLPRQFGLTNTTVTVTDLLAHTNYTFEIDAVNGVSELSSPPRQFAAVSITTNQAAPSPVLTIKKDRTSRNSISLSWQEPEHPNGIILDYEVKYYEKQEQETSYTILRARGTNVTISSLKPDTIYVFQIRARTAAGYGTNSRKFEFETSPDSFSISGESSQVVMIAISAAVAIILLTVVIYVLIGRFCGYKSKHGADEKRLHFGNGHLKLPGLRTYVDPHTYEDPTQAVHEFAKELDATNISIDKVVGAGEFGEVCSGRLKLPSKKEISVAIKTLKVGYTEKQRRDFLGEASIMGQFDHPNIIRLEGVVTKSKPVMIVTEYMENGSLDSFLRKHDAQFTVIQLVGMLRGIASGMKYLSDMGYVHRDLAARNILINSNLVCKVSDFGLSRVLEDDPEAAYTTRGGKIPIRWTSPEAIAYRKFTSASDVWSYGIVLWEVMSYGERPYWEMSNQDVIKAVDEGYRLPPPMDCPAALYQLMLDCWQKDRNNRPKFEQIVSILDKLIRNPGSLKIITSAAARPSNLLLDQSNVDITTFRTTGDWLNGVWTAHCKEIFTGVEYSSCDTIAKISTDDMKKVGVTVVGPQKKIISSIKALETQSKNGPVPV
Ephrin type-A receptor 3, sequence (P29320 whole entry, the tested form may be a part): as above
High affinity nerve growth factor receptor (Homo sapiens), sequence (P04629 33-796 limits assumed): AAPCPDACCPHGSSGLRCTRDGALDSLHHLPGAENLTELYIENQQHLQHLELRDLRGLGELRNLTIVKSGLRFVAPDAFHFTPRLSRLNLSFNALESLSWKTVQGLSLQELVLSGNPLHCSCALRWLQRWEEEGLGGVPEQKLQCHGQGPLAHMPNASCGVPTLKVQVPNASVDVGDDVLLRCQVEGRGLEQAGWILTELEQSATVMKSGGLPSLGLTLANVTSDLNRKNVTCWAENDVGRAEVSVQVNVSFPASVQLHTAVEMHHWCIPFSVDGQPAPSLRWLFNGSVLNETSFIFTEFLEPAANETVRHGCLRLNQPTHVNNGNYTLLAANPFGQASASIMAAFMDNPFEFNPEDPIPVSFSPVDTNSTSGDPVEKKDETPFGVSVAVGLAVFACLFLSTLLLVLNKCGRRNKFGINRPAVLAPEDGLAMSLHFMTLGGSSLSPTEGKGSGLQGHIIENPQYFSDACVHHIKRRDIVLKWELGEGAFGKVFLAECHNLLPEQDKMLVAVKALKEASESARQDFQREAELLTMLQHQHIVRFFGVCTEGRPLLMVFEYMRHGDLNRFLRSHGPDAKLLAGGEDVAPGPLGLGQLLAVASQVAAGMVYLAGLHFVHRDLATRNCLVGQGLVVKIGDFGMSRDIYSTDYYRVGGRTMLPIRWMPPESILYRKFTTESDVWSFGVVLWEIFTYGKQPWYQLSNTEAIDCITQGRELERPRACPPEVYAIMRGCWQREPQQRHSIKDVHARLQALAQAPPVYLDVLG

COCCNC(=O)c1ccc(Oc2sc(C(N)=O)c3c2-c2sncc2CC3)cn1
Kd [1]: 97 nM | Activity [2]: 0.9% | inhibition [3]: 28% | Kd [4]: 46 nM | inhibition [5]: Active | inhibition [6]: inactive | inhibition [7]: inactive | IC50 [8]: 0.46 nM | inhibition [9]: 105% | inhibition [10]: inactive | inhibition [11]: 83% | IC50 [12]: 270 nM | GI50 [13]: 2.5 nM | inhibition [14]: inactive | inhibition [15]: 33% | Fu [16]: 0.48% | microsomal CLint at 1 µM [17]: 21 µL/min/mg | bioavailability [18]: 98.5% | inhibition [19]: 2% | Fu [20]: 0.47% | Fu [21]: 0.43% | inhibition [22]: inactive | inhibition [23]: 7% | Kd [24]: 25 nM | MRT [25]: 1.93 h | inhibition [26]: 0% | inhibition [27]: inactive | Kd [28]: > 3000 nM | MTD [29]: 2.5 mg/kg | IC50 [30]: 0.99 nM
